According to article PMC5789847, “Bismuth antimicrobial drugs serve as broad-spectrum metallo-β-lactamase inhibitors” (Nature Communications, 2018):
Several values for one entry are separate records, joined by “and”; a condition that tells them apart may be missing. Equal values may be shown once.

Experiments:
[1] = tested on: NDM-HK (NDM-1^+); experiment: microbe, parasite or virus in culture; type: cell-based, E. coli; conditions: for MBC of Bi(III) compound/inhibitor alone / MBC of MER in combination with compound at 32 µg mL^-1 / MIC of Bi(III) compound/inhibitor alone / MIC of MER in combination with compound at 32 µg mL^-1 / FICI: NDM-HK; for FICI: MER + compound, 256 µg mL^-1 set as MIC of Bi(III), 128 for Bi(NAC)3
Method: (§1) MIC values were determined by standard broth micro-dilution method (Clinical and Laboratory Standards Institute (CLSI) M100-S20, 2010)[64]. Briefly, bacterial cells were cultured in LB broth overnight at 37 °C at 250 rpm and the OD was measured at 600 nm (OD600). The bacterial density was adjusted to about 1 × 10^6 CFU mL^−1 and checked by CFU counting on agar plates afterwards. Tested antibiotics or Bi(III) compounds were added triplicately into individual wells of flat-bottomed 96-well plates and performed 2-fold serial dilution, followed by addition of prepared bacterial inocula. The plate was then incubated at 37 °C for overnight. […] The MIC was determined as the lowest concentration of a drug that could inhibit the growth of microorganism by both visual reading and OD reading at 600 nm using a microtiter plate reader.
(§2) Resulting growth (or lack of growth) was examined after overnight culturing and the lowest concentration that inhibits 99.9% of the original culture was taken as MBC.
(§3) Other procedures were kept strictly the same. […] Synergism was defined when FICI ≤ 0.5, indifference was defined when FICI > 0.5 and < 4, and antagonism was defined when FICI≥4[65]. […] All of the determinations were performed at least in triplicate on different days.

[2] = tested on: VIM-BL21 (VIM-2^+); experiment: microbe, parasite or virus in culture; type: cell-based, E. coli; conditions: VIM-BL21; for FICI: MER + compound, 256 µg mL^-1 set as MIC of Bi(III)
Method: as §1, §2, §3

[3] = tested on: IMP-BL21 (IMP-4^+); experiment: microbe, parasite or virus in culture; type: cell-based, E. coli; conditions: IMP-BL21
Method: as §1, §2, §3

[4] = tested on: NDM-K. pneumonia (NDM-1^+); experiment: Microdilution MIC/MBC and checkerboard assay; type: cell-based, Klebsiella pneumonia; conditions: for MBC of MER in combination with compound at 32 µg mL^-1 / MIC of MER in combination with compound at 32 µg mL^-1: NDM-K. pneumonia (NDM-KP)
Method: as §1, §2, §3

[5] = tested on: NDM-C. freundii (NDM-1^+); experiment: Microdilution MIC/MBC and checkerboard assay; type: cell-based, Citrobacter freundii; conditions: for MBC of MER in combination with compound at 32 µg mL^-1 / MIC of MER in combination with compound at 32 µg mL^-1: NDM-C. freundii (NDM-CF)
Method: as §1, §2, §3

[6] = target: T1, NDM-1 (Klebsiella pneumoniae, UniProt C7C422); type: biochemical; conditions: NDM-1 50 nM, 1 h preincubation, MER substrate
Method: (§4) Freshly prepared 50 nM of Zn2-NDM-1, Zn2-VIM-2, or Zn2-IMP-4 in 50 mM HEPES/Na pH 7.0, 100 mM NaCl were first incubated with various concentrations of CBS for 1 h at 25 °C, then mixed with equal volume of 0.2 mM MER. The assay was performed in a 1 cm quartz cuvette using the kinetic mode on a Varian Cary50 UV-visible spectrophotometer at 25 °C. The decrease in absorbance at 300 nm due to ring-opening of MER was monitored every second for a duration of 10 min until the reaction was completed. The initial rates were extracted and calculated from each reaction curves for fitting IC50 curves.
Target sequence in this assay (C7C422 29-270, looked up, species assumed): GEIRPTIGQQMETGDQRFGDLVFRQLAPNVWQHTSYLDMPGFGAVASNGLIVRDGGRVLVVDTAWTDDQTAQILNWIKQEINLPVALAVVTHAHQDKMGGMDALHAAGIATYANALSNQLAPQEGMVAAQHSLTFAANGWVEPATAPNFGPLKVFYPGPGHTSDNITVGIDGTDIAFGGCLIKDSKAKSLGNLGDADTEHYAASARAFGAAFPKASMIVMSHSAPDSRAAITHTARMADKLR

[7] = target: VIM-2 (Escherichia coli, UniProt Q5U7L7); type: biochemical; conditions: VIM-2 50 nM, 1 h preincubation, MER substrate
Method: as §4

[8] = target: IMP-4; experiment: IC50 enzyme inhibition assay; type: biochemical; conditions: IMP-4 50 nM, 1 h preincubation, MER substrate
Method: as §4

[9] = tested on: NDM-HK; conditions: for growth inhibition based on optical density (OD) reading: metal compound 10, 50, 200 µM with MER at ½MIC (8 μg mL^−1), 24 h
Method: Metal salts used for the screening involved bismuth nitrate (Bi(III)), gallium nitrate (Ga(III)), sodium stibogluconate (Sb(V)), chromium chloride (Cr(III)), cobalt chloride (Co(II)), nickel chloride (Ni(II)), ruthenium chloride (Ru(II)), and copper sulfate (Cu(II)). Briefly, different concentrations (10, 50, and 200 μM) of metal compounds were added to LB medium containing 8 μg mL^−1 of MER in 96-well plates. About 2 × 10^6 CFU mL^−1 logarithmic cultures of NDM-HK were added to each well of the plates and co-incubated for overnight. The growth inhibition of bacteria was monitored by OD reading at 600 nm and serial dilution in LB agar plate. Wells with no antibiotics or metal compounds served as growth controls, and wells with no bacteria added served as background controls. Each test was performed in triplicate. The inhibition was calculated as [1−(ODsample−ODbackground)/(ODcontrol−ODbackground)] ×100%. CFU was counting by 10-fold serial dilution in PBS and 10 μL was spotted in LB agar plate.

[10] = target: T1, NDM-1; type: biochemical; conditions: MER substrate 10 to 150 µM
Target sequence in this assay (C7C422 29-270, looked up, species assumed): as above
Method: NDM-1 (50 nM) was incubated with Bi(NIT)3 (0.5, 1.0, and 1.5 µM) for 1 h at 25 °C with gentle shaking. The assay was performed in a 96-well microplate reader at 298 K. The final assay buffer contains 50 mM HEPES at pH 7.0, 100 mM NaCl, with MER as the substrate ranging from 10 to 150 µM. Control experiment was also performed in the absence of inhibitors under the same conditions. The Km and Vmax for both the uninhibited and inhibited reactions were obtained by fitting the data into the double reciprocal Lineweaver–Burk plots.

[11] = target: T1, NDM-1; type: cell-based; set-up: endogenous in cells; host or cells: E. coli clinical isolate NDM-HK; conditions: NDM-HK cultured with 100 µM compound; control 50.1 °C
Method: The cellular thermal shift assay was performed according to a standard method. Clinical isolate of NDM-1-positive E. coli (NDM-HK) was cultured overnight in the absence or presence of 100 µM Bi(III) compounds, i.e., CBS, Bi(NAC)3, Bi(NIT)3. The bacterial pellets were harvested and washed with PBS for 4 times. The cell suspensions were aliquoted into PCR tubes and heat treatment was performed at the designated temperature ranging from 40 °C to 70 °C for 3 min in a 96-well thermal cycler. The tubes were cooled immediately at room temperature for another 3 min after heating and the heating procedures were repeated for three cycles. For the cell lysis, the samples were frozen–thawed for two cycles in liquid nitrogen and thermal cycler set at 25 °C. The samples were vortexed gently after each cycle and were centrifuged at 20,000 × g to obtain the supernatant when the second cycle was finished. All the samples were subjected to western blot analysis for detection and quantification of NDM-1 content as described above.
Target sequence in this assay (C7C422 29-270 limits assumed): as the sequence (C7C422 29-270, looked up, species assumed) above

Structure (SMILES) | MBC of Bi(III) compound/inhibitor alone [1] | MBC of MER in combination with compound at 32 µg mL^-1 [1] | MIC of Bi(III) compound/inhibitor alone [1] | MIC of MER in combination with compound at 32 µg mL^-1 [1] | FICI [1] | MBC of MER in combination with compound at 32 µg mL^-1 [2] | MIC of MER in combination with compound at 32 µg mL^-1 [2] | FICI [2] | other results
CNC(=C[N+](=O)[O-])NCCSCc1ccc(CN(C)C)o1.O=C([O-])CC(O)(CC(=O)[O-])C(=O)[O-].[Bi+3] [RBC, ranitidine bismuth citrate] | > 256 µg/mL | 4 µg/mL | > 256 µg/mL | 2 µg/mL | 0.250 | – | – | – | –
C[C@H](C[S][Bi+][S]C[C@@H](C)C(=O)N1CCC[C@H]1C(=O)[O-])C(=O)N1CCC[C@H]1C(=O)[O-] [Bi(CPL)2] | > 256 µg/mL | 0.5 µg/mL | > 256 µg/mL | 0.5 µg/mL | 0.125 | 1 µg/mL | 0.5 µg/mL | 0.078 | MBC of Bi(III) compound alone [2]: > 256 µg/mL; MIC of Bi(III) compound alone [2]: > 256 µg/mL
CC(C)([S][Bi+][S]C(C)(C)C(N)C(=O)O)C(N)C(=O)O (centres unmarked) [Bi(PCM)2] | > 256 µg/mL | 2 µg/mL | > 256 µg/mL | 2 µg/mL | 0.313 | 2 µg/mL | 1 µg/mL | 0.093 | MBC of MER in combination with compound at 32 µg mL^-1 [3]: 2 µg/mL; MIC of MER in combination with compound at 32 µg mL^-1 [3]: 1 µg/mL; MBC of Bi(III) compound alone [2]: > 256 µg/mL; MIC of Bi(III) compound alone [2]: > 256 µg/mL; MBC of MER in combination with compound at 32 µg mL^-1 [4]: 8 µg/mL; MIC of MER in combination with compound at 32 µg mL^-1 [4]: 2 µg/mL; MBC of MER in combination with compound at 32 µg mL^-1 [5]: 2/2 µg mL^-1; MIC of MER in combination with compound at 32 µg mL^-1 [5]: 2/2 µg mL^-1; IC50 [6]: 2800 ± 110 nM; IC50 [7]: 3710 ± 1190 nM; IC50 [8]: 1000 ± 370 nM
O=[N+]([O-])[O-].O=[N+]([O-])[O-].O=[N+]([O-])[O-].[Ga+3] [gallium nitrate] | – | – | greater than 256 µg mL^-1 | – | – | – | – | – | growth inhibition based on optical density (OD) reading [9]: > 90%
NC(CCC(=O)NC(C[S][Bi]([S]CC(NC(=O)CCC(N)C(=O)O)C(=O)NCC(=O)O)[S]CC(NC(=O)CCC(N)C(=O)O)C(=O)NCC(=O)O)C(=O)NCC(=O)O)C(=O)O (centres unmarked) [Bi(GSH)3] | > 256 µg/mL | 4 µg/mL | > 256 µg/mL | 2 µg/mL | 0.250 | – | – | – | –
O=C(O)CN(CCN(CC(=O)O)CC(=O)O)CC(=O)O [EDTA, ethylenediaminetetraacetate] | > 256 µg/mL | 0.5 µg/mL | > 256 µg/mL | 0.5 µg/mL | 0.031 | – | – | – | –
O=[N+]([O-])[O-].O=[N+]([O-])[O-].O=[N+]([O-])[O-].[Bi+3] [Bi(NIT)3, bismuth nitrate] | > 256 µg/mL | 4 µg/mL | > 256 µg/mL | 2 µg/mL | 0.266 | 2 µg/mL | 1 µg/mL | 0.063 | MBC of MER in combination with compound at 32 µg mL^-1 [3]: 8 µg/mL; MIC of MER in combination with compound at 32 µg mL^-1 [3]: 4 µg/mL; FICI ([3]; MER + compound, 256 µg mL^-1 set as MIC of Bi(III)): 0.250; MBC of MER in combination with compound at 32 µg mL^-1 [4]: 1 µg mL^-1 and 1/1 µg mL^-1; MIC of MER in combination with compound at 32 µg mL^-1 [4]: 1 µg mL^-1 and 1/1 µg mL^-1; MBC of Bi(III) compound alone ([4]; NDM-KP): > 256 µg/mL; MIC of Bi(III) compound alone ([4]; NDM-KP): > 256 µg/mL; FICI ([4]; NDM-KP, MER + compound, 256 µg mL^-1 set as MIC of Bi(III)): 0.125; MBC of MER in combination with compound at 32 µg mL^-1 [5]: 4 µg/mL; MIC of MER in combination with compound at 32 µg mL^-1 [5]: 2 µg/mL; MBC of Bi(III) compound alone ([5]; NDM-CF): > 256 µg/mL; MIC of Bi(III) compound alone ([5]; NDM-CF): > 256 µg/mL; FICI ([5]; NDM-CF, MER + compound, 256 µg mL^-1 set as MIC of Bi(III)): 0.375; IC50 [6]: 700 ± 130 nM; IC50 [7]: 1200 ± 130 nM; IC50 [8]: 990 ± 190 nM; inhibition mode (Lineweaver Burk plot) [10]: either a non-competitive or an irreversible inhibition mode; colony-forming unit (CFU) counting on agar plate after serial dilutions ([9]; MER 8 μg mL-1 + metal compound 10 μM): no colony was observed; growth inhibition based on optical density (OD) reading [9]: > 90%; NDM-1 melting temperature, treated group [11]: 48.1 °C
O=C([O-])CN(CCN(CC(=O)[O-])CC(=O)O)CC(=O)[O-].[Bi+3] [Bi(EDTA)] | > 256 µg/mL | 0.5 µg/mL | > 256 µg/mL | 0.5 µg/mL | 0.094 | – | – | – | –
CC(=O)N[C@@H](CS)C(=O)O [NAC, N-acetyl-cysteine] | > 256 µg/mL | 8 µg/mL | > 256 µg/mL | 8 µg/mL | 0.750 | – | – | – | –
C[C@H](CS)C(=O)N1CCC[C@@H]1C(=O)O [CPL, D-captopril] | – | 16 µg/mL | – | 16 µg/mL | 2.000 | – | – | – | MBC ([1]; Escherichia coli, read-out: MBC of Bi(III) compound/inhibitor alone): > 256 µg/mL; MIC ([1]; Escherichia coli, read-out: MIC of Bi(III) compound/inhibitor alone): > 256 µg/mL
